Consider 6 molecules from patent publication US6706716B2, “Compounds specific for the human α1d adrenergic receptor and uses thereof” (Synaptic Pharmaceutical Corporation, priority 1998, dated 2004).

Assay [1] addresses T1, human α1a adrenergic receptor (Homo sapiens, UniProt P35348).
T1 construct: The entire coding region of α1a (1401 bp); expressed in transfected cells
T1 sequence (P35348 1-466): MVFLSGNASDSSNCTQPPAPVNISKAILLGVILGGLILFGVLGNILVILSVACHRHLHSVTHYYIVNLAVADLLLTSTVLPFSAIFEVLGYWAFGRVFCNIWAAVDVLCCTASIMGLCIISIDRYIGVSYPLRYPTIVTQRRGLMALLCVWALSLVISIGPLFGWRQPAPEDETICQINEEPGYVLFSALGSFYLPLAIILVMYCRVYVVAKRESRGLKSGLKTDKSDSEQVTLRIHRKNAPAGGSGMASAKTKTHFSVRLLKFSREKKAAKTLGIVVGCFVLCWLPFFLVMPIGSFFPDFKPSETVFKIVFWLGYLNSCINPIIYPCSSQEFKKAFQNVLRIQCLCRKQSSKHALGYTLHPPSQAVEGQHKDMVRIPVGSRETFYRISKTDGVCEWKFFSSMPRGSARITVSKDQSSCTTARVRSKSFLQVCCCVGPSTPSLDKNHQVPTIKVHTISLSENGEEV
Briefly: Radioligand binding ([3H]prazosin) at cloned human α1a adrenergic receptor. Conditions: LM(tk-) cell membranes, read-out: Binding affinities (pKi) α1a (converted). Here is the method:
(§1) First, conditions were determined which allowed measurement of the specific binding of a compound known to bind to the receptor. Then, the binding of the known compound to the receptor in membrane preparations was evaluated in the presence of several different concentrations of the test compound.
(§2) These cell lines were prepared by transfecting the cloned cDNA or cloned genomic DNA or constructs containing both genomic DNA and cDNA encoding the human receptors as described below.
The construct involved ligating three partial overlapping fragments: a 5′0.6 kb HincII genomic clone, a central 1.8 EcoRI hippocampal cDNA clone, and a 3′0.6 Kb PstI genomic clone. The hippocampal cDNA fragment overlaps with the 5′ and 3′ genomic clones so that the HincII and PstI sites at the 5′ and 3′ ends of the cDNA clone, respectively, were utilized for ligation. This full-length clone was cloned into the KpnI site of the expression vector, using the 5′ and 3′ KpnI sites of the fragment, derived from vector (i.e., pBluescript) and 3′-untranslated sequences, respectively. Stable cell lines were selected as described above. Membranes were harvested and assayed for their ability to bind [^3H]prazosin as described below (see Radioligand Binding assays).
(§3) Radioligand Binding Assays for α1 Human Adrenergic Receptors: Transfected cells from culture flasks were scraped into 5 ml of 5 mM Tris-HCl, 5 mM EDTA, pH 7.5, and lysed by sonication. The cell lysates were centrifuged at 1000 rpm for 5 min at 4° C., and the supernatant was centrifuged at 30,000×g for 20 min at 4° C. The pellet was suspended in 50 mM Tris-HCl, 1 mM MgCl2, and 0.1% ascorbic acid at pH 7.5. Binding of the α1, antagonist [^3H]prazosin (0.5 nM, specific activity 76.2 Ci/mmol) to membrane preparations of LM(tk-) cells was done in a final volume of 0.25 ml and incubated at 37° C. for 1 hour. Nonspecific binding was determined in the presence of 10 μM phentolamine. The reaction was stopped by filtration through GF/B filters using a cell harvester.

The target of assay [2] is T2, human α1d adrenergic receptor (Homo sapiens, UniProt P25100).
T2 construct: The entire coding region. of α1d (1719 bp); expressed in transfected cells
T2 sequence (P25100 1-572): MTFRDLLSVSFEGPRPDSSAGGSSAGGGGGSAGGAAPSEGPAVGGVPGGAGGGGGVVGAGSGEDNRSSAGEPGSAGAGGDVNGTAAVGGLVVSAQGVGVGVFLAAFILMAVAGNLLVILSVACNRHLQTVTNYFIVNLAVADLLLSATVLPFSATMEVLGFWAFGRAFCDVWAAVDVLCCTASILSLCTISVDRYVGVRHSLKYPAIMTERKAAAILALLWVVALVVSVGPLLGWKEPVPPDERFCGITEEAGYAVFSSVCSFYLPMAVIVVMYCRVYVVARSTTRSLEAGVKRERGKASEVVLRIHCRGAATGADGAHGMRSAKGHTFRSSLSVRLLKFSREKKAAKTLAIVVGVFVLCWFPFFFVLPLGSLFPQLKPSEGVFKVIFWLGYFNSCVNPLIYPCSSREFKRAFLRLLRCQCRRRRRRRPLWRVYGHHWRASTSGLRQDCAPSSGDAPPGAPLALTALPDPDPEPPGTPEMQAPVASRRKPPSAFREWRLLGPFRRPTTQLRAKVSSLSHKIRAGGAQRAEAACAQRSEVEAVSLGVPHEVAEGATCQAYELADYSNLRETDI
The assay is described as follows: Radioligand binding ([3H]prazosin) at cloned human α1d adrenergic receptor. Conditions: LM(tk-) cell membranes, read-out: Binding affinities (pKi) α1d (converted). The procedure: as §1, §2
α1d Human Adrenergic Receptor: The entire coding region. of α1d (1719 bp), including 150 base pairs of 5′ untranslated sequence (5′ UT) and 300 bp of 3′ untranslated sequence (3′ UT), was cloned into the BamHI and ClaI sites of the polylinker-modified eukaryotic expression vector pCEXV-3, called EXJ.HR. The construct involved the ligation of partial overlapping human lymphocyte genomic and hippocampal cDNA clones: 5′ sequence were contained on a 1.2 kb SmaI-XhoI genomic fragment (the vector-derived BamHI site was used for subcloning instead of the internal insert-derived SmaI site) and 3′ sequences were contained on a 1.3 kb XhoI-ClaI cDNA fragment (the ClaI site was from the vector polylinker). Stable cell lines were obtained by cotransfection with the plasmid α1A/EXJ (expression vector containing the α1a receptor gene (old nomenclature)) and the plasmid pGCcos3neo (plasmid containing the aminoglycoside transferase gene) into LM(tk-) cells using the calcium phosphate technique. The cells were grown, in a controlled environment (37° C., 5% CO2), as monolayers in Dulbecco's modified Eagle's Medium (GIBCO, Grand Island, N.Y.) containing 25 mM glucose and supplemented with 10% bovine calf serum, 100 units/ml penicillin g, and 100 μg/ml streptomycin sulfate. Stable clones were then selected for resistance to the antibiotic G-418 (1 mg/ml), and membranes were harvested and assayed for their ability to bind [^3H]prazosin as described below (see Radioligand Binding assays).
The cell line expressing the human α1d receptor used herein was designated L-α1A (old nomenclature) and was deposited with the American Type Culture Collection, 12301 Parklawn Drive, Rockville, Md. 20852, U.S.A. under the provisions of the Budapest Treaty for the International Recognition of the Deposit of Microorganisms for the Purposes of Patent Procedure. The cell line expressing the human α1d receptor, was accorded ATCC Accession No. CRL 11138, and was deposited on Sep. 25, 1992.
as §3

Assay [3] deals with T3, human α1b adrenergic receptor (Homo sapiens, UniProt P35368).
T3 construct: The entire coding region of α1b (1563 bp); expressed in transfected cells
T3 sequence (P35368 1-520): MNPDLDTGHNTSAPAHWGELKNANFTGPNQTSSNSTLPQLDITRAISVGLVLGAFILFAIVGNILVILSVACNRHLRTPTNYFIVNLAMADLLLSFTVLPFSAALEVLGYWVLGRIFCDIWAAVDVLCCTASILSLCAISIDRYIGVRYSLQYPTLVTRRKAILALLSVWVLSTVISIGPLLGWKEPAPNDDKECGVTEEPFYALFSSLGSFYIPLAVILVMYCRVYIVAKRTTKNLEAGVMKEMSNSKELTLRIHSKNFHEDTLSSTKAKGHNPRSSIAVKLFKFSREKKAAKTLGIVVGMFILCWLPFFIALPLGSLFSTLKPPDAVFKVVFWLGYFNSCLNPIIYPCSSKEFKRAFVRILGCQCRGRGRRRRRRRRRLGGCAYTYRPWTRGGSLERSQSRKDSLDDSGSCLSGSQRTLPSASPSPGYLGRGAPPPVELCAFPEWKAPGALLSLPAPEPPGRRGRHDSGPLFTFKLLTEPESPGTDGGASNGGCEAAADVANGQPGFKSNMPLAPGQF
The assay is described as follows: Radioligand binding ([3H]prazosin) at cloned human α1b adrenergic receptor. Conditions: LM(tk-) cell membranes, read-out: Binding affinities (pKi) α1b (converted). Here is the method: as §1, §2
α1b Human Adrenergic Receptor: The entire coding region of α1b (1563 bp), including 200 base pairs of 5′ untranslated sequence (5′ UT) and 600 bp of 3′ untranslated sequence (3′ UT), was cloned into the EcoRI site of pCEXV-3 eukaryotic expression vector. The construct involved ligating the full-length EcoRI brainstem cDNA fragment from λ ZapII into the expression vector. Stable cell lines were selected as described above. Membranes were harvested and assayed for their ability to bind [^3H]prazosin as described below (see Radioligand Binding assays). The cell line used herein was designated L-α1B and was deposited with the American Type Culture Collection, 12301 Parklawn Drive, Rockville, Md. 20852, U.S.A. under the provisions of the Budapest Treaty for the International Recognition of the Deposit of Microorganisms for the Purposes of Patent Procedure. The cell line L-α1B was accorded ATCC Accession No. CR 11139, on Sep. 29, 1992.
as §3

Assay [4] has as its system urethane-anesthetized rats. Briefly: Blood pressure in urethane-anesthetized, normotensive rats. Format: in vivo, rat. The procedure: Rats were anesthetized with urethane and PE50 cannulae were placed in the femoral artery and vein for blood pressure monitoring and drug administration, respectively. After stabilization, rats were administered 200 μl saline vehicle or increasing doses of BMY 7378 or Compound 7 at 10 minutes intervals until the reduction in blood pressure reached a plateau. The 5-HT1A-selective antagonist WAY 100635 (1 mg/kg) was then administered and blood pressure monitored for an additional 10 minutes.

`C[C@@H](CN1CCN(c2cc(F)c(F)cc2F)CC1)N1C(=O)CC2(CCCC2)CC1=O` [Compound 11, 8-{(1S)-2-[4-(2,4,5-Trifluorophenyl)piperazin-1-yl]-1-methylethyl}-8-azaspiro[4.5]decane-7,9-dione]: the Ki in assay [1] was 12600 nM; in assay [2], 126 nM.
On to `O=C1CC2(CCCC2)CC(=O)N1[C@H](Cc1ccccc1)CN1CCN(c2cc(F)c(F)cc2F)CC1` [Compound 17, 8-{(1R)-1-Benzyl-2-[4-(2,4,5-trifluorophenyl)piperazino]ethyl}-8-azaspiro[4.5]decane-7,9-dione], for which the Ki was 10000 nM in assay [1] and 79.4 nM in assay [2].
Turning to `C[C@H](CN1CCN(c2cc(F)c(F)cc2F)CC1)N1C(=O)CC2(CCCC2)CC1=O` [Compound 9, 8-{(1R)-2-[4-(2,4,5-Trifluorophenyl)piperazin-1-yl]-1-methylethyl}-8-azaspiro[4.5]decane-7,9-dione], the Ki in assay [1] is 15800 nM; in assay [2], 1.26 nM.
For the molecule `O=C1CC2(CCCC2)CC(=O)N1[C@@H](CN1CCN(c2cc(F)c(F)cc2F)CC1)c1ccccc1` [Compound 16, 8-{(1R)-1-Phenyl-2-[4-(2,4,5-trifluorophenyl)piperazino]ethyl}-8-azaspiro[4.5]decane-7,9-dione], the results for the Ki in assay [1] and in assay [2] were 7940 nM and 79.4 nM, respectively.
On to `O=C1CC2(CCCC2)CC(=O)N1CCN1CCN(c2ccccc2F)CC1` [Compound 20, 8-{2-[4-(2-Fluorophenyl)piperazin-1-yl]ethyl}-8-azaspiro[4.5]decane-7,9-dione], for which the Ki in assay [1] was 631 nM; in assay [3] it was 63.1 nM.
Take `COc1ccccc1N1CCN(CCN2C(=O)CC3(CCCC3)CC2=O)CC1` [BMY 7378, reference compound]: the “reversal of the blood pressure effect by WAY 100635” value in assay [4] (5-HT1A-selective antagonist WAY 100635 1 mg/kg given after plateau) is given as “reversed”. In addition, the “effect on systolic, diastolic and mean blood pressure” value in assay [4] (urethane-anesthetized rats, increasing i.v. doses at 10 min intervals) is listed as “dose-dependent reduction”.
